{"source": "PubChem BioAssay AID588618", "about": "(The Scripps Research Institute Molecular Screening Center, 2011)", "target": "Early growth response protein 1 (Homo sapiens) (UniProt P18146)", "sequence (P18146 whole entry, looked up)": "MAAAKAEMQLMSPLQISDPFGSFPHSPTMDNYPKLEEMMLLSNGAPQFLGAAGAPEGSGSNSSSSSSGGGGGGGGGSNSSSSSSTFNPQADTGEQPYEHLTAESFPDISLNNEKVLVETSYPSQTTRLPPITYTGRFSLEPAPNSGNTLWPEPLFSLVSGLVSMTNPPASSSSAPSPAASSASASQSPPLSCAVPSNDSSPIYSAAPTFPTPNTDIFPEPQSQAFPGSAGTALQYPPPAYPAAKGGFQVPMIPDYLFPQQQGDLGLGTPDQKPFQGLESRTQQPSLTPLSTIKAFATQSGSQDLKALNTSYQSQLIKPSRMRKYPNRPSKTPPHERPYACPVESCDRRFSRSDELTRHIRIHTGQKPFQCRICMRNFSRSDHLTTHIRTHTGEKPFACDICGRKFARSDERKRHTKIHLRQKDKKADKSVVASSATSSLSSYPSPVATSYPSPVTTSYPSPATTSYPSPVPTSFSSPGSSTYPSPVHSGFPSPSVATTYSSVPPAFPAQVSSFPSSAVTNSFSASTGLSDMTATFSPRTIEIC", "assay": "altered EGR1 protein amount, DLD-1 – DLD1 cells, chemiluminescent western blot, powder samples, counter-screen for KLF5 inhibitor project, late-stage follow-up (AID 588618)", "conditions": "DLD-1 cells, 24 h, at 10 µM, hits give high values", "data": [{"compound": "CN(C(=O)COC(=O)/C=C/c1cccc([N+](=O)[O-])c1)C1CCS(=O)(=O)C1", "note": "(stereo not drawn)", "values": [{"measurement": "inhibition", "result": 19.4, "unit": "%"}]}, {"compound": "CN(C(=O)CNC(=O)/C=C/c1cccc(Cl)c1)C1CCS(=O)(=O)C1", "note": "(stereo not drawn)", "values": [{"measurement": "inhibition", "result": 14.3, "unit": "%"}]}, {"compound": "CN(C(=O)CNC(=O)/C=C/c1cccc(Cl)c1)C1CCS(=O)(=O)CC1", "values": [{"measurement": "inhibition", "result": 21.1, "unit": "%"}]}]}
